According to patent US20030161787A1, “Method for the identification of agents and genes influencing cardiovascular function” (priority 2000, published 2003):

Assays:
[1] = biological target: HERG (human ether-a-gogo-related gene) (Homo sapiens, UniProt Q12809); conditions: cited from earlier work
[2] = test system: three-day old zebrafish larvae; test: Induction of arrhythmic heart beat in three-day old zebrafish larvae by arrhythmia-inducing drugs; conditions: low doses in medium; anaesthetized larvae, dissecting microscope
zebrafish larvae = test: Zebrafish larvae bathed in drug-containing medium; heart beat rate, contractility and blood flow monitored by microscope; format: in vivo; conditions: for effect on heart beat rate, contractility and blood flow: drug added to bathing medium, 2 d old larvae, 100 μM (FIG. 1) or increasing concentrations (FIG. 2); for effect on heart beat rate, contractility and blood flow (cardiac performance) of untreated fish: applied alone to the surrounding medium, 4 d old larvae (FIG. 4)
Method: About 50 zebrafish larvae were incubated for 2-7 d at 22-28° C. in petri dishes filled with 30 ml embryo medium.
(§1) At the day of the experiment 10 larvae were transferred to small petri dishes filled with 10 ml embryo medium, 0.5 ml MESAB solution and 10 μl of the respective drug (or +10 μl of a second drug) added from a 1000-fold stock solution prepared with DMSO, these three components were previously mixed in 50 ml plastic tubes (controls only receive 10 μl DMSO).
(§2) At certain time points the contractility of the heart and blood flow was monitored, and the heart rate was determined by counting the heart beat with the aid of a stereo-microscope.

[3] = test system: nifedipine-treated zebrafish; test: Reversal of nifedipine-induced effects on the heart of zebrafish larvae by a second drug; format: in vivo
Method: Similarely, putative anti-arrhythmic agents can be identified by studying heart beats of teleost larvae which were bathed prior to or simultaneous with the addition of the agents in a solution of an arrhythmia-inducing drug.
as §1, §2

Chain of HERG (human ether-a-gogo-related gene) (Q12809 whole entry): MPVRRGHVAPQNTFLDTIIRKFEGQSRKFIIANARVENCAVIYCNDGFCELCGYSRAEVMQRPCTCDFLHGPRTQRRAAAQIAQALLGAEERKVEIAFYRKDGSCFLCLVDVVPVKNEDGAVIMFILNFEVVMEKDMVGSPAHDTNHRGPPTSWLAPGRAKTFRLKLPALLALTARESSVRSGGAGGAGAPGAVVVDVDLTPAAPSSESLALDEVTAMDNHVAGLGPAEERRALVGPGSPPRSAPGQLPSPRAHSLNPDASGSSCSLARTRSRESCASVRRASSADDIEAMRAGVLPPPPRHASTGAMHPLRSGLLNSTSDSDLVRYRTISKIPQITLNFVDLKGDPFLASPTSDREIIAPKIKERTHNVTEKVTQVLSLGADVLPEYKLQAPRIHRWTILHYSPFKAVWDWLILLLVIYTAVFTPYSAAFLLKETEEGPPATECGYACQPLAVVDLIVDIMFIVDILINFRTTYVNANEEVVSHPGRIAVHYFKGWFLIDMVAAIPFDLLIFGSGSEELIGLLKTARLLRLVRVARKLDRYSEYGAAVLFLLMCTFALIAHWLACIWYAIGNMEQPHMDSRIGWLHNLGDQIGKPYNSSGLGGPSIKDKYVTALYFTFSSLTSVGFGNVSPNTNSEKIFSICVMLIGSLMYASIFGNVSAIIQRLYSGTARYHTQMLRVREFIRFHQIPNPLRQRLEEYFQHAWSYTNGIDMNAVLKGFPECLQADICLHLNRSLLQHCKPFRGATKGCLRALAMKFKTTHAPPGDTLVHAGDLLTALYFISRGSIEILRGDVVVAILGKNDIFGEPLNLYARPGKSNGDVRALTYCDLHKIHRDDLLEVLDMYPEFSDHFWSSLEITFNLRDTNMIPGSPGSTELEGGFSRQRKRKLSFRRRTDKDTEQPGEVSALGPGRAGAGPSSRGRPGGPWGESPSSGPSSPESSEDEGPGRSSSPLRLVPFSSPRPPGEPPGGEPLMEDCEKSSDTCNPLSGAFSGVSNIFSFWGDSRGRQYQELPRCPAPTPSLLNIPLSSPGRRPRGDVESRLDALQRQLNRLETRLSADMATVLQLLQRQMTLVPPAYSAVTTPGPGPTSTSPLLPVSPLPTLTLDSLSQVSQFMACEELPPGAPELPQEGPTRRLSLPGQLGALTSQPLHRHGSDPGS

In the case of `COc1cc(N)c(Cl)cc1C(=O)NC1CCN(CCCOc2ccc(F)cc2)CC1OC` (stereo not shown) [cisapride], the “block of HERG” value [1] is given as “high affinity block” and the “larvae with induced arrhythmic heart beat” value [2] is given as ~100 % of larvae.

With `CC(C)NCC(O)COc1cccc2ccccc12` (stereo not shown) [propanolol] the “effect on heart beat rate, contractility and blood flow” value (zebrafish larvae) was “decrease in heart beat rate, contractility and blood flow”.

For `O=c1[nH]c2ccccc2n1C1CCN(CCCC(c2ccc(F)cc2)c2ccc(F)cc2)CC1` [pimozide], the “larvae with induced arrhythmic heart beat” value [2] was ~100 % of larvae.

For `COc1ccc(CCN2CCC(Nc3nc4ccccc4n3Cc3ccc(F)cc3)CC2)cc1` [astemizole], the “larvae with induced arrhythmic heart beat” value [2] was ~100 % of larvae.

For `COc1ccc(CCN(C)CCCC(C#N)(c2ccc(OC)c(OC)c2)C(C)C)cc1OC` (stereo not shown) [verapamil], the “effect on heart beat rate, contractility and blood flow” value (zebrafish larvae) was “decrease in heart beat rate, contractility and blood flow”.

For `CC(C)(C)c1ccc(C(O)CCCN2CCC(C(O)(c3ccccc3)c3ccccc3)CC2)cc1` (stereo not shown) [terfenadine], the “larvae with induced arrhythmic heart beat” value [2] was ~100 % of larvae.

For `CSc1ccc2c(c1)N(CCC1CCCCN1C)c1ccccc1S2` (stereo not shown) [thioridazine], the “larvae with induced arrhythmic heart beat” value [2] was ~100 % of larvae.

With `COC(=O)C1=C(C)NC(C)=C([N+](=O)[O-])C1c1ccccc1C(F)(F)F` (racemic) [Bay K 8644, 1,4-dihydro-2,6-dimethyl-5-nitro-4-[2′-(trifluoromethyl)phenyl]-3-pyridinecarboxylic acid methyl ester] the “effect on heart beat rate, contractility and blood flow (cardiac performance) of untreated fish” value (zebrafish larvae) was “nearly negligible effects”, the “effect on heart beat rate, contractility and blood flow (cardiac performance) of untreated fish” value (zebrafish larvae; listed as (+/−)Bay K 8644) was “nearly no effect” and the “re-animation of larvae with arrest of the heart beat” value ([3]; arrest induced by 50 μM nifedipine for 1 h, added to bathing solution, 3 d old larvae (FIG. 5)) was “re-animated within minutes”. The “contractility of nifedipine-treated zebrafish” value ([3]; nifedipine-treated larvae (FIG. 3)) was “strong increase in contractility” and the “blocking of the effects of nifedipine” value ([3]; simultaneous addition with nifedipine, 4 d old larvae (FIG. 3)) was “completely blockable”.

With `O=C(CCCN1CC=C(n2c(=O)[nH]c3ccccc32)CC1)c1ccc(F)cc1` [droperidol] the “larvae with induced arrhythmic heart beat” value [2] was ~100 % of larvae.

In the case of `O=C(CCCN1CCC(O)(c2ccc(Cl)cc2)CC1)c1ccc(F)cc1` [haloperidol], the “block of HERG” value [1] is listed as “high affinity block” and the “larvae with induced arrhythmic heart beat” value [2] is listed as ~100 % of larvae.
